Values joined by “and” are separate entries in the source; they are usually repeats but may differ in a detail not shown here. Identical values can stand only once.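 Method: 48-hour compound exposure of cells in 96-well plates, five concentrations, linear interpolation of endpoints. GI50 marks 50% less growth. TGI marks complete inhibition of growth.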
Assays:
Assay in all cases: inhibition of tumour cell growth, NCI panel, 48 h
786-0 renal = tested on: 786-0 renal
A498 renal = tested on: A498 renal
A549 NSCLC = tested on: A549 NSCLC
ACHN renal = tested on: ACHN renal
BT-549 breast = tested on: BT-549 breast
CAKI-1 renal = tested on: CAKI-1 renal
CCRF-CEM leukemia = tested on: CCRF-CEM leukemia
COLO 205 colon = tested on: COLO 205 colon
DU-145 prostate = tested on: DU-145 prostate
EKVX NSCLC = tested on: EKVX NSCLC
HCC-2998 colon = tested on: HCC-2998 colon
HCT-116 colon = tested on: HCT-116 colon
HCT-15 colon = tested on: HCT-15 colon
HL-60(TB) leukemia = tested on: HL-60(TB) leukemia
HOP-62 NSCLC = tested on: HOP-62 NSCLC
HOP-92 NSCLC = tested on: HOP-92 NSCLC
HS 578T breast = tested on: HS 578T breast
HT29 colon = tested on: HT29 colon
IGROV1 ovarian = tested on: IGROV1 ovarian
K-562 leukemia = tested on: K-562 leukemia
KM12 colon = tested on: KM12 colon
LOX IMVI melanoma = tested on: LOX IMVI melanoma
M14 melanoma = tested on: M14 melanoma
MALME-3M melanoma = tested on: MALME-3M melanoma
MCF7 breast = tested on: MCF7 breast
MDA-MB-231 breast = tested on: MDA-MB-231 breast
MDA-MB-435 = tested on: MDA-MB-435
MOLT-4 leukemia = tested on: MOLT-4 leukemia
NCI-H226 lung = tested on: NCI-H226 lung
NCI-H23 lung = tested on: NCI-H23 lung
NCI-H460 lung = tested on: NCI-H460 lung
NCI-H522 lung = tested on: NCI-H522 lung
NCI/ADR-RES ovarian = tested on: NCI/ADR-RES ovarian
OVCAR-3 ovarian = tested on: OVCAR-3 ovarian
OVCAR-4 ovarian = tested on: OVCAR-4 ovarian
OVCAR-5 ovarian = tested on: OVCAR-5 ovarian
OVCAR-8 ovarian = tested on: OVCAR-8 ovarian
PC-3 prostate = tested on: PC-3 prostate
RPMI-8226 leukemia = tested on: RPMI-8226 leukemia
RXF 393 renal = tested on: RXF 393 renal
SF-268 CNS = tested on: SF-268 CNS
SF-295 CNS = tested on: SF-295 CNS
SF-539 CNS = tested on: SF-539 CNS
SK-MEL-2 melanoma = tested on: SK-MEL-2 melanoma
SK-MEL-28 melanoma = tested on: SK-MEL-28 melanoma
SK-MEL-5 melanoma = tested on: SK-MEL-5 melanoma
SK-OV-3 ovarian = tested on: SK-OV-3 ovarian
SN12C renal = tested on: SN12C renal
SNB-19 CNS = tested on: SNB-19 CNS
SNB-75 CNS = tested on: SNB-75 CNS
SR leukemia = tested on: SR leukemia
SW-620 colon = tested on: SW-620 colon
T-47D breast = tested on: T-47D breast
TK-10 renal = tested on: TK-10 renal
U251 CNS = tested on: U251 CNS
UACC-257 melanoma = tested on: UACC-257 melanoma
UACC-62 melanoma = tested on: UACC-62 melanoma
UO-31 renal = tested on: UO-31 renal

## CC/C(=C(\c1ccc(O)cc1)c1ccc(OCCNC)cc1)c1ccccc1
786-0 renal
  GI50: 1.73 µM and 1.72 µM
  TGI: 3.13 µM and 3.19 µM and 3.35 µM
A498 renal
  GI50: 2.33 µM and 1.84 µM
  TGI: 10.2 µM and 4.12 µM and 8.67 µM
A549 NSCLC
  GI50: 2.33 µM and 1.79 µM and 1.74 µM
  TGI: 5.55 µM and 3.49 µM and 3.75 µM
ACHN renal
  GI50: 2.11 µM and 1.65 µM and 1.94 µM
  TGI: 4.85 µM and 3.48 µM and 4.1 µM
BT-549 breast
  GI50: 2.39 µM and 1.84 µM and 3.33 µM
  TGI: 5.61 µM and 3.77 µM and 8.64 µM
CAKI-1 renal
  GI50: 1.82 µM and 1.68 µM and 2.02 µM
  TGI: 4.28 µM and 3.52 µM and 6.29 µM
CCRF-CEM leukemia
  GI50: 2.96 µM and 2.56 µM and 2.75 µM
  TGI: 11 µM and 8.6 µM and 7.58 µM
COLO 205 colon
  GI50: 1.78 µM and 1.8 µM
  TGI: 3.28 µM and 3.31 µM and 3.44 µM
DU-145 prostate
  GI50: 2.15 µM and 1.71 µM and 2.33 µM
  TGI: 4.36 µM and 3.46 µM and 5.25 µM
EKVX NSCLC
  GI50: 2.41 µM and 2.04 µM
  TGI: 8.86 µM and 5.59 µM
HCC-2998 colon
  GI50: 1.8 µM and 1.78 µM and 1.88 µM
  TGI: 3.28 µM and 3.23 µM and 3.62 µM
HCT-116 colon
  GI50: 1.61 µM and 1.54 µM and 1.73 µM
  TGI: 2.98 µM and 2.95 µM and 3.22 µM
HCT-15 colon
  GI50: 1.8 µM and 1.56 µM
  TGI: 3.92 µM and 3.2 µM and 3.71 µM
HL-60(TB) leukemia
  GI50: 1.88 µM and 1.89 µM and 2.39 µM
  TGI: 4.43 µM and 4.07 µM and 5.44 µM
HOP-62 NSCLC
  GI50: 1.88 µM and 1.83 µM and 1.71 µM
  TGI: 3.35 µM and 3.32 µM and 3.42 µM
HOP-92 NSCLC
  TGI: 2.04 µM and 2.96 µM and 7.46 µM
HS 578T breast
  GI50: 0.356 µM and 1.34 µM and 1.78 µM
  TGI: 3.42 µM and 3.32 µM and 5.18 µM
HT29 colon
  GI50: 1.71 µM and 1.55 µM
  TGI: 3.39 µM and 2.92 µM and 3.46 µM
IGROV1 ovarian
  GI50: 1.93 µM and 1.65 µM and 2.38 µM
  TGI: 4.13 µM and 3.25 µM and 5.4 µM
K-562 leukemia
  GI50: 2 µM and 1.74 µM and 2.11 µM
  TGI: 4.88 µM and 3.89 µM and 5.66 µM
KM12 colon
  GI50: 1.7 µM and 1.64 µM and 1.81 µM
  TGI: 3.15 µM and 3.14 µM and 3.49 µM
LOX IMVI melanoma
  GI50: 1.47 µM and 1.45 µM and 1.73 µM
  TGI: 2.79 µM and 2.77 µM and 3.22 µM
M14 melanoma
  GI50: 1.8 µM and 1.75 µM and 1.86 µM
  TGI: 3.25 µM and 3.24 µM and 3.63 µM
MALME-3M melanoma
  GI50: 1.76 µM and 1.66 µM and 1.82 µM
  TGI: 3.49 µM and 3.29 µM and 3.5 µM
MCF7 breast
  GI50: 0.788 µM and 0.427 µM
  TGI: 2.84 µM and 2.83 µM and 2.81 µM
MDA-MB-231 breast
  GI50: 1.89 µM and 1.65 µM and 1.61 µM
  TGI: 4.31 µM and 3.52 µM and 3.22 µM
MDA-MB-435
  GI50: 1.51 µM and 1.57 µM and 1.58 µM
  TGI: 3.04 µM and 3.07 µM and 3.02 µM
MOLT-4 leukemia
  GI50: 3.22 µM and 1.94 µM and 2.98 µM
  TGI: 8.37 µM and 5.92 µM and 8.57 µM
NCI-H226 lung
  GI50: 9.26 µM and 6.49 µM and 4.33 µM
  TGI: 28.4 µM and 23.7 µM and 17 µM
NCI-H23 lung
  GI50: 2.13 µM and 1.97 µM and 2.1 µM
  TGI: 4.8 µM and 4.29 µM and 4.45 µM
NCI-H460 lung
  GI50: 1.98 µM and 1.83 µM and 1.89 µM
  TGI: 3.67 µM and 3.45 µM and 3.66 µM
NCI-H522 lung
  GI50: 1.78 µM and 1.5 µM and 1.97 µM
  TGI: 3.84 µM and 3.19 µM and 3.83 µM
NCI/ADR-RES ovarian
  GI50: 2.6 µM and 2.55 µM and 2.5 µM
  TGI: 6.83 µM and 7.06 µM and 6.81 µM
OVCAR-3 ovarian
  GI50: 2.09 µM and 1.72 µM and 1.97 µM
  TGI: 4.11 µM and 3.16 µM and 3.9 µM
OVCAR-4 ovarian
  GI50: 4.62 µM and 4.21 µM
  TGI: 18.5 µM and 15 µM
OVCAR-5 ovarian
  GI50: 2.82 µM and 2.44 µM and 2.09 µM
  TGI: 8.23 µM and 6.35 µM and 4.77 µM
OVCAR-8 ovarian
  GI50: 2.6 µM and 2.18 µM and 2.4 µM
  TGI: 6.66 µM and 5.28 µM and 5.78 µM
PC-3 prostate
  GI50: 1.84 µM and 1.77 µM and 2.25 µM
  TGI: 5.92 µM and 4.85 µM and 5.53 µM
RPMI-8226 leukemia
  GI50: 2.08 µM and 1.99 µM and 2.27 µM
  TGI: 5.05 µM and 4.58 µM and 5.73 µM
RXF 393 renal
  GI50: 1.5 µM and 1.63 µM and 1.37 µM
  TGI: 3.68 µM and 3.3 µM and 2.8 µM
SF-268 CNS
  GI50: 2.25 µM and 1.74 µM and 2.06 µM
  TGI: 5.24 µM and 3.76 µM and 4.74 µM
SF-295 CNS
  GI50: 1.72 µM and 1.84 µM and 1.94 µM
  TGI: 3.48 µM and 3.55 µM and 4.09 µM
SF-539 CNS
  GI50: 1.74 µM and 1.7 µM and 1.59 µM
  TGI: 3.15 µM and 3.09 µM and 3.01 µM
SK-MEL-2 melanoma
  GI50: 2.04 µM and 1.85 µM and 2.1 µM
  TGI: 4.02 µM and 3.65 µM and 3.85 µM
SK-MEL-28 melanoma
  GI50: 1.67 µM and 1.55 µM and 1.74 µM
  TGI: 3.04 µM and 2.94 µM and 3.28 µM
SK-MEL-5 melanoma
  GI50: 1.77 µM and 1.66 µM and 1.71 µM
  TGI: 3.17 µM and 3.07 µM
SK-OV-3 ovarian
  GI50: 5.14 µM and 3.69 µM and 2.08 µM
  TGI: 13.6 µM and 9.3 µM and 5.09 µM
SN12C renal
  GI50: 1.98 µM and 2.86 µM and 3.02 µM
  TGI: 8.84 µM and 9.58 µM and 10.4 µM
SNB-19 CNS
  GI50: 3.61 µM and 2.67 µM and 2.63 µM
  TGI: 10.9 µM and 8.03 µM and 7.01 µM
SNB-75 CNS
  GI50: 2.15 µM and 1.96 µM and 1.32 µM
  TGI: 7.39 µM and 6.81 µM and 2.76 µM
SR leukemia
  GI50: 2.42 µM and 1.63 µM and 2.22 µM
  TGI: 5.85 µM and 4.11 µM and 5.54 µM
SW-620 colon
  GI50: 1.69 µM and 1.75 µM and 1.85 µM
  TGI: 3.11 µM and 3.26 µM and 3.74 µM
T-47D breast
  GI50: 1.3 µM and 1.21 µM and 1.25 µM
  TGI: 3.83 µM and 3.43 µM and 4.01 µM
TK-10 renal
  GI50: 2.39 µM and 1.88 µM and 2.56 µM
  TGI: 5.5 µM and 3.89 µM and 6.26 µM
U251 CNS
  GI50: 1.57 µM and 1.5 µM and 1.66 µM
  TGI: 2.92 µM and 2.83 µM and 3.15 µM
UACC-257 melanoma
  GI50: 1.93 µM and 1.64 µM and 1.7 µM
  TGI: 3.82 µM and 3.35 µM and 3.28 µM
UACC-62 melanoma
  GI50: 1.66 µM and 1.65 µM and 1.78 µM
  TGI: 3.41 µM and 3.24 µM and 3.44 µM
UO-31 renal
  GI50: 1.54 µM and 1.32 µM and 1.67 µM
  TGI: 4.41 µM and 3 µM and 3.57 µM

Reference: PubChem BioAssay (NCI)
